pEC50: −log10 of the molar value.
Columns and labels:
Assay in all cases: Cell line panel 2 high-content screen
Assay type in all cases: cell-based
[1] = system: SW 1116; details: Homo sapiens; SW 1116 (intestine); 72 hours
Description: (§1) To support clinical development and identify potential biomarkers of tumor sensitivity or resistance, two large cancer cell line panels (Panel 1, N=653 (McDermott et al. (2007) PNAS 104:19936-19941); Panel 2, N=240 (O'Day et al. (2010) Fourth AACR International Conference on Molecular Diagnostics in Cancer Therapeutic Development)) were treated with MLN4924 and cell viability data (IC50, EC50, and POC—Percentage of Control) were generated.
(§2) Panel 2 (Ricerca Biosciences, Inc., Bothell, Wash.). MLN4924 was added in half-log dilutions for 10 concentrations and treated for 72 hours. High-content cell screening by fluorescence microscopy included image analysis to generate several types of data. Results included EC50 values (after measurement of cell numbers, the EC50 concentration was calculated from the inflection point of a curve of percent of control (POC) against log of MLN4924 concentration), IC50 values (from the POC-log MLN4924 plot, IC50 is the concentration at 50% maximal possible response), apoptosis (measurement of activation of caspase 3 plotted against log of MLN4924 concentration, determined as the concentration for >5 fold induction), and mitotic activity (determined by measuring the fold increase of phospho-histone 3). A comparison of EC50 to IC50 (FIG. 3) allowed assignment of cell lines to sensitive, insensitive or resistant. Final identification of a cell line as sensitive or resistant was based on the EC50 values. The cutoff for sensitivity is a median EC50 of less than the median value of all POC's recorded in the panel (<0.36), borderline sensitivity was associated with median EC50 of 0.36 to 1.67 and insensitive or resistant cell lines were identified by EC50 greater than the 3rd quartile of all POC's in the panel (>1.67).

[2] = system: YAPC; details: Homo sapiens; YAPC (pancreas); 72 hours
Description: as §1, §2

[3] = system: CFPAC-1; details: Homo sapiens; CFPAC-1 (pancreas); 72 hours
Description: as §1, §2

[4] = system: HT29; details: Homo sapiens; HT29 / HT-29 (intestine); 72 hours
Description: as §1, §2

[5] = system: COLO320 HSR; details: Homo sapiens, COLO-320-HSR; COLO320 HSR (intestine); 72 hours
Description: as §1, §2

[6] = system: MDA-MB-231; details: Homo sapiens; MDA-MB-231 (breast); 72 hours
Description: as §1, §2

[7] = system: RL95-2; details: RL95-2 (endometrium)
Description: as §1, §2

[8] = system: COLO-205; details: Homo sapiens; COLO-205 (intestine); 72 hours
Description: as §1, §2

[9] = system: MIA-PaCa-2; details: Homo sapiens; MIA-PaCa-2 (pancreas); 72 hours
Description: as §1, §2

[10] = system: SKUT1; details: Homo sapiens, SK-UT-1; SKUT1 (smooth muscle); 72 hours
Description: as §1, §2

[11] = system: THP-1; details: THP-1 (haematopoietic, lymphoid_tissue)
Description: as §1, §2

[12] = system: LS-174T; details: Homo sapiens, LS174T; LS-174T (large_intestine); 72 hours
Description: as §1, §2

[13] = system: ACHN; details: Homo sapiens; ACHN (kidney); 72 hours
Description: as §1, §2

[14] = system: SW837; details: Homo sapiens; SW837 (intestine); 72 hours
Description: as §1, §2

[15] = system: LS1034; details: Homo sapiens, LS-1034; LS1034 (intestine); 72 hours
Description: as §1, §2

[16] = system: CAL-62; details: Homo sapiens; CAL-62 (thyroid); 72 hours
Description: as §1, §2

[17] = system: BV-173; details: BV-173 (haematopoietic, lymphoid_tissue)
Description: as §1, §2

[18] = system: MDA-MB-468; details: Homo sapiens; MDA-MB-468 (breast); 72 hours
Description: as §1, §2

[19] = system: CAL-27; details: Homo sapiens; CAL-27 (upper aerodigestive tract); 72 hours
Description: as §1, §2

[20] = system: HCT-15; details: Homo sapiens; HCT-15 (intestine); 72 hours
Description: as §1, §2

[21] = system: SK-OV-3; details: Homo sapiens; SK-OV-3 (ovary); 72 hours
Description: as §1, §2

[22] = system: 647-V; details: Homo sapiens; 647-V (urinary_tract); 72 hours
Description: as §1, §2

[23] = system: SW620; details: Homo sapiens, SW-620; SW620 (intestine); 72 hours
Description: as §1, §2

[24] = system: SW954; details: SW954 (vulva)
Description: as §1, §2

[25] = system: SW1417; details: Homo sapiens; SW1417 (intestine); 72 hours
Description: as §1, §2

[26] = system: BxPC-3; details: Homo sapiens; BxPC-3 (pancreas); 72 hours
Description: as §1, §2

[27] = system: CAPAN-1; details: Homo sapiens; CAPAN-1 (pancreas); 72 hours
Description: as §1, §2

[28] = system: NClH747; details: NClH747 (intestine); 72 hours
Description: as §1, §2

NS(=O)(=O)OC[C@@H]1C[C@@H](n2ccc3c(N[C@H]4CCc5ccccc54)ncnc32)C[C@@H]1O [MLN4924, ((1S,2S,4R)-4-{4-[(1S)-2,3-dihydro-1H-inden-1-ylamino]-7H-pyrrolo[2,3-d]pyrimidin-7-yl}-2-hydroxycyclopentyl)methyl sulphamate]
pEC50 [1]: 5.00 | pEC50 [2]: 6.63 | pEC50 [3]: 5.20 | pEC50 [4]: 6.60 | pEC50 [5]: 5.75 | pEC50 [6]: 6.06 | pEC50 ([7]; Homo sapiens, 72 hours): 7.03 | Phenotype ([7]; NF2 mutant): sensitive (The cutoff for sensitivity is a median EC50 of less than the median value of all POC's recorded in the panel (<0.36)) | pEC50 [8]: 7.03 | pEC50 [9]: 6.62 | pEC50 [10]: 7.07 | pEC50 ([11]; Homo sapiens, 72 hours): 6.83 | Phenotype ([11]; KDM6A mutant): sensitive (The cutoff for sensitivity is a median EC50 of less than the median value of all POC's recorded in the panel (<0.36)) | pEC50 [12]: 6.86 | pEC50 [13]: 6.19 | pEC50 [14]: 6.16 | pEC50 [15]: 5.42 | pEC50 [16]: 7.08 | Phenotype ([17]; KDM6A mutant): sensitive (The cutoff for sensitivity is a median EC50 of less than the median value of all POC's recorded in the panel (<0.36)) | pEC50 ([17]; Homo sapiens, 72 hours): 6.88 | pEC50 [18]: 7.57 | pEC50 [19]: 6.86 | pEC50 [20]: 6.08 | pEC50 [21]: 5.00 | pEC50 [22]: 6.55 | pEC50 [23]: 6.41 | pEC50 ([24]; Homo sapiens, SW 954, 72 hours): 6.49 | Phenotype ([24]; SMAD4 mutant): sensitive (The cutoff for sensitivity is a median EC50 of less than the median value of all POC's recorded in the panel (<0.36)) | pEC50 [25]: 5.04 | pEC50 [26]: 6.60 | pEC50 [27]: 6.44 | pEC50 [28]: 5.68

— patent US20150119410A1, “BIOMARKERS OF RESPONSE TO NAE INHIBITORS” (MILLENNIUM PHARMACEUTICALS, INC., priority 2011, published 2015)
